Patent US10828305B2 (SHANGHAI PHARMACEUTICALS HOLDING CO., LTD., priority 2016, dated 2020)

Tests used:
ErbB2 kinase = ErbB2 kinase (Homo sapiens, UniProt P04626); experiment: Enzymatic experiment on ErbB2 (HTRF kinEASE-TK); assay type: biochemical; settings: ATP 4 μM; read-out: Kinase IC50 (nM) in vitro ErbB2
Experimental: (§1) Enzymatic Experiment on EGFR/ErbB2
(§2) Firstly, preparing 1× reaction buffer required for the kinase, 5× Enzymatic buffer (HEPES 20 mM pH7.0, NaN3 0.1%, BSA 0.05%, sodium orthovanadate 0.5 mM) in the HTRF kinEASE-TK kit was diluted to 1 time with deionized water, 50 nM Supplement Enzymatic buffer (SEB reagent), 1 mM MnCl2, 5 mM MgCl2 and 1 mM DTT were added. Secondly, preparing 5× compound, 10 mM test compound stock solution was diluted in multiple steps with DMSO in a 96-well compound plate to prepare 100× compound as initial concentration, which was then used as the first concentration to perform a 3-fold gradient dilution with DMSO to obtain 10 concentrations. Afterwards, 1 μl gradient dilution was added to 19 μl 1× reaction buffer to prepare 5× compound for use. Then 2 μl 5× compound was transferred from the 96 well plate into a 384-well plate. To the compound-free control wells was added with 2 μl the following liquid: 19 μl 1× reaction buffer with addition of 1 μl DMSO. To the blank control wells was added 2 μl 250 mM EDTA. The third step was enzymatic reaction, the kinase, substrate (TK Substrate-biotin) and ATP were formulated into 2.5× enzyme/substrate mixture and 2.5×ATP solution using 1× reaction buffer respectively. The final concentration of ErbB2 kinase was 0.06 ng/μl, the final concentration of ATP was 4 μM; the final concentration of EGFR kinase was 0.06 units/μl, the final concentration of ATP was 1.65 μM; 4 μl 2.5× enzyme/substrate mixture was added to a 384-well plate, which was incubated at room temperature for 5 minutes; 4 μl 2.5×ATP solution was added to each well and the mixture was allowed to react for 30 minutes at room temperature. The fourth step was termination of the reaction, HTRF Detection buffer was used to prepare a mixture of 2×TK Antibody-Eu(K) and Sa-XL665, the amount of TK Antibody-Eu(K) was 5 μl per well. After the enzymatic reaction was performed for 30 minutes, 10 μl of the above liquid was added to the 384-well plate and the mixture was allowed to react at room temperature for 1 hour. The data was measured on EnVision™, the laser of 337 nm wavelength was selected as the excitation light, RFU665 nM and RFU620 nM were measured, and […]/RFU620 nM×10000 was used as the final data for analysis.

EGFR kinase = EGFR kinase (Homo sapiens, UniProt P00533); experiment: Enzymatic experiment on EGFR (HTRF kinEASE-TK); assay type: biochemical; settings: ATP 1.65 μM; read-out: Kinase IC50 (nM) in vitro EGFR
Experimental: as §1, §2

BT-474 = experiment: Proliferation inhibition assay in vitro, BT-474 (CellTiter-Glo); assay type: cell-based; settings: Homo sapiens, 72 hours, read-out: IC50(nM) cell BT-474
Experimental: (§3) Proliferation Inhibition Assay In Vitro of Cell Lines
(§4) 1. Cell culture and inoculation: on the first day of the experiment, normal cultured cells were taken in the exponential growth phase, the cells were dispersed by digesting, then the cell density was adjusted to 8.8×10^4 cells/mL for BT-474 and 6.6×10^4 cells/mL for N87, 90 μl of which were inoculated to each well in a 96-well cell culture plate; after inoculation, the microplate was placed at condition of 37° C., 5% CO2 overnight. 2. Dosing to cells: on the second day of the experiment, the microplate was taken out from incubator, […], of 10× compound was separately added to each well of the microplate, 2 duplicated wells were set for each concentration, 9 dosing concentrations were set for each compound. According to different cell lines, the initial concentration of each compound was different. Upon completion of addition, the microplate was placed at condition of 37° C., 5% CO2 for 72 hours. 3. Data acquisition: the microplate was taken out from the incubator and allowed to stand at room temperature to equilibrate for 30 minutes. 100 μl CellTiter-Glo® Luminescent Cell Viability Assay reaction solution which had been equilibrated at room temperature was added to each well and the microplate was shaken at 1300 rpm for 2 minutes at room temperature. The microplate was centrifuged at 2000 rpm for 1 minute in a HERAEUS Multifuge X1R and then allowed to equilibrate at room temperature for 10 minutes. The […] signal was measured on EnVision™.

N87 = experiment: Proliferation inhibition assay in vitro, N87 (CellTiter-Glo); assay type: cell-based; settings: Homo sapiens; 72 hours; read-out: IC50(nM) cell N87
Experimental: as §3, §4

Chain of ErbB2 kinase (P04626 23-1255): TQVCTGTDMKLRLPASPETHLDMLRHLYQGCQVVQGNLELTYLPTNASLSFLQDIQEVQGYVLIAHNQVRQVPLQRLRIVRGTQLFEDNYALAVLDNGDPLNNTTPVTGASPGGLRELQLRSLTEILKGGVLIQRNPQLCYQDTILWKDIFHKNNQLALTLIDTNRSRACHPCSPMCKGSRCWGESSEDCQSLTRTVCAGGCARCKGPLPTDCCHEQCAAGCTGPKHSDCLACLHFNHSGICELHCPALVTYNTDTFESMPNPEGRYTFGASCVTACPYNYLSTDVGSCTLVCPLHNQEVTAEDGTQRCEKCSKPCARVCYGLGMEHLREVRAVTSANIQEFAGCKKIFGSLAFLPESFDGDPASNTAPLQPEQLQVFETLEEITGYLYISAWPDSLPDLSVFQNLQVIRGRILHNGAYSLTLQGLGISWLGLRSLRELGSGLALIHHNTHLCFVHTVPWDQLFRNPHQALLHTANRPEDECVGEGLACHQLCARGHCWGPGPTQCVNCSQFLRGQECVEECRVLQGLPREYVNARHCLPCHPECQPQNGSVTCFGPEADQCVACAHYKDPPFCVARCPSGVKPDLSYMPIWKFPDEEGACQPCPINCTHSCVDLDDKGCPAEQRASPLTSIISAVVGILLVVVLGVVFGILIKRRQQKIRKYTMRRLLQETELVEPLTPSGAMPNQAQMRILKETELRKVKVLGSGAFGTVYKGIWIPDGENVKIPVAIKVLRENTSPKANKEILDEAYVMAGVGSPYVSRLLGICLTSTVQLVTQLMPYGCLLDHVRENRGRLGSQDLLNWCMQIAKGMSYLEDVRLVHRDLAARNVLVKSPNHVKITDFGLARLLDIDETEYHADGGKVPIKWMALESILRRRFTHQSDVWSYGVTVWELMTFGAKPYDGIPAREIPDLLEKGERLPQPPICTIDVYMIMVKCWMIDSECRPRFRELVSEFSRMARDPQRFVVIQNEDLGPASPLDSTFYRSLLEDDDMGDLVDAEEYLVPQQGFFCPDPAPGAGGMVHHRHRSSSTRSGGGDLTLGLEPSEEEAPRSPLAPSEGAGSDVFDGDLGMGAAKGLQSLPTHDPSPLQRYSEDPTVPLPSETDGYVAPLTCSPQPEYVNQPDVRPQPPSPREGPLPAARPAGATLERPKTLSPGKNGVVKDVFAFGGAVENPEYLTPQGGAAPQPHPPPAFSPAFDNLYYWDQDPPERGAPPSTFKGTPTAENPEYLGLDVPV
Chain of EGFR kinase (P00533 25-1210): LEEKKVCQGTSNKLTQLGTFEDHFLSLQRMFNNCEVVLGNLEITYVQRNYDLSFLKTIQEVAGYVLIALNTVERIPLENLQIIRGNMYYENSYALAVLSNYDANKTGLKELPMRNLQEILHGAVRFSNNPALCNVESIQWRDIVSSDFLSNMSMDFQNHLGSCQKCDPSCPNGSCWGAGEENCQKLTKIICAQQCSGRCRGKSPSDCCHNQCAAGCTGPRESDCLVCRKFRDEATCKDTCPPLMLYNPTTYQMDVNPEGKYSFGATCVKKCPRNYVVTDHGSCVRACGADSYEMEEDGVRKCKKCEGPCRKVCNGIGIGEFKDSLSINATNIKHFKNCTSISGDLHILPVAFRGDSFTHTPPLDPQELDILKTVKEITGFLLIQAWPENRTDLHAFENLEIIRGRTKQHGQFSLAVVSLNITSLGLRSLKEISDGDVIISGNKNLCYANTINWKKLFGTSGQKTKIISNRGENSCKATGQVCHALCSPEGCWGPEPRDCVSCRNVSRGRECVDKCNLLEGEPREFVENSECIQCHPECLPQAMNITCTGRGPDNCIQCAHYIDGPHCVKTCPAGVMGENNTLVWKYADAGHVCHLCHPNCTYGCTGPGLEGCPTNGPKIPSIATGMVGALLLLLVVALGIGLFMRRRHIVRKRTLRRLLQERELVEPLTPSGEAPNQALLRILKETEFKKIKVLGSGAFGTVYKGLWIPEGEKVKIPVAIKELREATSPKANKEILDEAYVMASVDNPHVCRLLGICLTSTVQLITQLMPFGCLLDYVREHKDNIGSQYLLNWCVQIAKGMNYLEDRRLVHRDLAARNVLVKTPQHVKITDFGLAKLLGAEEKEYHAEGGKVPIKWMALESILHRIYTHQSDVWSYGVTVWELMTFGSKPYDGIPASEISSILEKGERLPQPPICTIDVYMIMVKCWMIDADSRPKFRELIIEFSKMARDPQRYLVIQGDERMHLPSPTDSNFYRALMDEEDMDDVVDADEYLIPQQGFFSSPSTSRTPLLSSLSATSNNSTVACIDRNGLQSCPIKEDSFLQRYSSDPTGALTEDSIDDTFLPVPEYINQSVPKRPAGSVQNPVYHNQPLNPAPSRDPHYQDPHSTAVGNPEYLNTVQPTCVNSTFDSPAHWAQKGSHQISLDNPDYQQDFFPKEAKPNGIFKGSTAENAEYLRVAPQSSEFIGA

| IC50 (ErbB2 kinase) [nM] | IC50 (EGFR kinase) [nM] | IC50 (BT-474) [nM] | Compound | IC50 (N87) [nM] |
| --- | --- | --- | --- | --- |
| 1.8 | 20 |  | Cc1cc(Nc2ncnc3ccc(NC(=O)c4cnoc4C)cc23)ccc1Oc1cc2nncn2cn1 [Embodiment 39, N-(4-((4-([1,2,4]triazolo[4,3-c]pyrimidin-7-yloxy)-3-methylphenyl)amino)quinazoline-6-yl)-5-methylisoxazole-4-carboxamide] |  |
| 6.9 | 12.7 |  | COc1cc2ncnc(Nc3ccc(Oc4cc5nncn5cn4)c(C)c3)c2cc1OC1CCNCC1 [Embodiment 40, N-(4-([1,2,4]triazolo[4,3-c]pyrimidin-7-yloxy)-3-methylphenyl)-7-methoxy-6-(piperidin-4-yloxy)quinazolin-4-amine] |  |
| 9.26 | 69.7 |  | Cc1cc(Nc2ncnc3ccc(NC4=NCC(F)(F)CO4)cc23)ccc1Oc1cc2nncn2cn1 [Embodiment 43, N^4-(4-([1,2,4]triazolo[4,3-c]pyrimidin-7-yloxy)-3-methylphenyl)-N^6-(5,5-difluoro-5,6-dihydro-4H-1,3-oxazin-2-yl)quinazoline-4,6-diamine] |  |
| 7 | 92.7 |  | Cc1cc(Nc2ncnc3ccc(NC(=O)Nc4cc(C)n(C(=O)OC(C)(C)C)n4)cc23)ccc1Oc1cc2nncn2cn1 [Embodiment 69, tert-butyl 3-(3-(4-((4-([1,2,4]triazolo[4,3-c]pyrimidin-7-yloxy)-3-methylphenyl)amino)quinazolin-6-yl)ureido)-5-methyl-1H-pyrazol-1-carbamate] |  |
| 2.2 | 14.9 |  | Cc1cc(Nc2ncnc3ccc(NC(=O)/C(C#N)=C/C4CC4)cc23)ccc1Oc1cc2nncn2cn1 [Embodiment 85, (E)-N-(4-((4-([1,2,4]triazolo[4,3-c]pyrimidin-7-yloxy)-3-methylphenyl)amino)quinazolin-6-yl)-2-cyano-3-cyclopropylacrylamide] |  |
| 8.5 | 167 |  | CC1(C)COC(Nc2ccc3ncnc(Nc4ccc(Oc5cc6nncn6cn5)c(CO)c4)c3c2)=N1 [Embodiment 89, N^4-(3-hydroxymethyl-4-([1,2,4]triazolo[4,3-c]pyrimidin-7-yloxy)phenyl)-N^6-(4,4-dimethyl-4,5-dihydrooxazol-2-yl)quinazolin-4,6-diamine] |  |
| 4.5 | 11.4 |  | Cc1cc(Nc2ncnc3ccc(NC4=NC(C)(C)CO4)cc23)ccc1Oc1ncn2cnnc2c1O [Embodiment 102, 7-(4-((6-((4,4-dimethyl-4,5-dihydrooxazol-2-yl)amino)quinazolin-4-yl)amino)-2-methylphenoxy)-[1,2,4]triazolo[4,3-c]pyrimidin-8-ol] |  |
| 9.4 | 170 |  | Cc1cc(Nc2ncnc3ccc(NC(=S)NCC(C)(C)O)cc23)ccc1Oc1cc2nncn2cn1 [Embodiment 113, 1-(4-((4-([1,2,4]triazolo[4,3-c]pyrimidin-7-yloxy)-3-methylphenyl)amino)quinazolin-6-yl)-3-(2-hydroxy-2-methylpropyl)thiourea] |  |
| 24.5 | 623 |  | C=CC(=O)N1CCC2(CC1)CN=C(Nc1ccc3ncnc(Nc4ccc(Oc5cc6nncn6cn5)c(C)c4)c3c1)O2 [Embodiment 114, 1-(2-((4-((4-([1,2,4]triazolo[4,3-c]pyrimidin-7-yloxy)-3-methylphenyl)amino)quinazolin-6-yl)amino)-1-oxa-3,8-diazaspiro[4,5]dec-2-en-8-yl)-2-acrylamide] |  |
|  | 57.6 | 14.2 | Cc1cc(Nc2ncnc3ccc(NC4=NC(C)(C)CO4)cc23)ccc1Oc1ccn2ncnc2c1 [drawing 219, reference compound] | 13.2 |
| 49.4 | 82.7 |  | Cc1cc(Nc2ncnc3ccc(NC4=NC(C)(C)CO4)cc23)ccc1Oc1ccn2nccc2n1 [reference compound] |  |
| 935 | 557 |  | Cc1cc(Nc2ncnc3ccc(NC4=NC(C)(C)CO4)cc23)ccc1Oc1ccc2nncn2n1 [reference compound] |  |

Continued, compound first:

| Compound | IC50 (ErbB2 kinase) [nM] | IC50 (EGFR kinase) [nM] | IC50 (BT-474) [nM] | IC50 (N87) [nM] |
| --- | --- | --- | --- | --- |
| Cc1cc(Nc2ncnc3ccc(/C=C/C(=O)NOCCO)cc23)ccc1Oc1cc2nncn2cn1 | 22.1 | 82.7 |  |  |
| Cc1cc(Nc2ncnc3ccc(NC4=NC(C)(C)CO4)cc23)ccc1Oc1cc2ncnn2cn1 [Embodiment 2, N^4-(4-([1,2,4]triazolo[1,5-c]pyrimidin-7-yloxy)-3-methylphenyl)-N^6-(4,4-dimethyl-4,5-dihydrooxazol-2-yl)quinazoline-4,6-diamine] | 16.7 | 230 |  |  |
| Cc1cc(Nc2ncnc3ccc(NC4=NC(C)(C)CO4)cc23)ccc1Oc1cc2nccn2cn1 [Embodiment 3, N^6-(4,4-dimethyl-4,5-dihydrooxazol-2-yl)-N^4-(4-(imidazo[1,2-c]pyrimidin-7-yloxy)-3-methylphenyl)quinazoline-4,6-diamine] | 1.1 | 18.7 | 38.5 | 48.7 |
| Cc1cc(Nc2ncnc3ccc(Br)cc23)ccc1Oc1cc2nncn2cn1 [Embodiment 5, N-(4-([1,2,4]triazolo[4,3-c]pyrimidin-7-yloxy)-3-methylphenyl)-6-bromoquinazolin-4-amine] | 12.9 | 703 | 460 | 313 |
| Cc1cc(Nc2ncnc3ccc(NC(=O)N4CCOCC4)cc23)ccc1Oc1cc2nncn2cn1 [Embodiment 6] | 24.8 | 1890 |  |  |
| Cc1cc(Nc2ncnc3ccc(NC(=S)NC(C)(C)CNC(=O)OC(C)(C)C)cc23)ccc1Oc1cc2nncn2cn1 [Embodiment 11, tert-butyl (2-(3-(4-((4-([1,2,4]triazolo[4,3-c]pyrimidin-7-yloxy)-3-methylphenyl)amino)quinazolin-6-yl)thioureido)-2-methylpropyl)carbamate] | 58.1 | > 3330 |  |  |
| Cc1cc(Nc2ncnc3ccc(NC(=S)NCC(C)(C)N)cc23)ccc1Oc1cc2nncn2cn1 [Embodiment 18, 1-(4-((4-([1,2,4]triazolo[4,3-c]pyrimidin-7-yloxy)-3-methylphenyl)amino)quinazolin-6-yl)-3-(2-amino-2-methylpropyl)thiourea] | 13.2 | 79.5 |  |  |
| Cc1cc(Nc2ncnc3ccc(NC(=O)OC[C@@H]4COCCN4)cc23)ccc1Oc1cc2nncn2cn1 [Embodiment 20, morpholin-3-ylmethyl (S)-(4-((4-([1,2,4]triazolo[4,3-c]pyrimidin-7-yloxy)-3-methylphenyl)amino)quinazolin-6-yl)carbamate] | 4.3 | 40.6 |  |  |
| Cc1cc(Nc2ncnc3ccc(NC4=NCC5(CCNCC5)O4)cc23)ccc1Oc1cc2nncn2cn1 [Embodiment 28, N^4-(4-([1,2,4]triazolo[4,3-c]pyrimidin-7-yloxy)-3-methylphenyl)-N^6-(1-oxa-3,8-diazaspiro[4.5]dec-2-en-2-yl)quinazoline-4,6-diamine] | 4.79 | 17.7 |  |  |
| C=CC(=O)N1CC2(COC(Nc3ccc4ncnc(Nc5ccc(Oc6cc7nncn7cn6)c(C)c5)c4c3)=N2)C1 [Embodiment 29, 1-(6-((4-((4-([1,2,4]triazolo[4,3-c]pyrimidin-7-yloxy)-3-methylphenyl)amino)quinazolin-6-yl)amino)-7-oxa-2,5-diazaspiro[3.4]oct-5-en-2-yl)prop-2-en-1-one] | 3.6 | 41.8 |  |  |
| Cc1cc(Nc2ncnc3ccc(NC(=O)CC#N)cc23)ccc1Oc1cc2nncn2cn1 [Embodiment 37, N-(4-((4-([1,2,4]triazolo[4,3-c]pyrimidin-7-yloxy)-3-methylphenyl)amino)quinazoline-6-yl)-2-cyanoacetamide] | 4.8 | 45.2 |  |  |
